{
  "source": "PubChem BioAssay AID2060912",
  "about": "(Molecular Pharmacology Branch, DTP, NCI, 2025)",
  "test_system": "HUVEC/MSC spheroids viability",
  "test": "Human HUVEC/MSC cell line growth inhibition [KRAS2];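 as to viability, T/C: percent of DMSO vehicle control luminescence so 100% = untreated viability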",
  "settings": "for IC50: curve of first compound; for viability, T/C: stronger effect = lower value",
  "in_short": "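Growth/viability of tumour-free HUVEC–hMSC spheroids was measured after exposure to targeted small molecules and KRAS inhibitors, singly or in combination. Agents were diluted in half-log steps from Cmax-based top concentrations, capped at 10 microM without known Cmax.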",
  "key": {"[1]": {"settings": "second compound 0.0316 µM, first compound 0.0316 µM"}, "[2]": {"settings": "second compound 0.0316 µM, first compound 0.1 µM"}, "[3]": {"settings": "second compound 0.0316 µM, first compound 0.316 µM"}, "[4]": {"settings": "second compound 0.0316 µM, first compound 1 µM"}, "[5]": {"settings": "second compound 0.0316 µM, first compound 3.16 µM"}, "[6]": {"settings": "second compound 0.0316 µM, first compound 10 µM"}, "[7]": {"settings": "second compound 0.1 µM, first compound 0.0316 µM"}, "[8]": {"settings": "second compound 0.1 µM, first compound 0.1 µM"}, "[9]": {"settings": "second compound 0.1 µM, first compound 0.316 µM"}, "[10]": {"settings": "second compound 0.1 µM, first compound 1 µM"}, "[11]": {"settings": "second compound 0.1 µM, first compound 3.16 µM"}, "[12]": {"settings": "second compound 0.1 µM, first compound 10 µM"}, "[13]": {"settings": "second compound 0.316 µM, first compound 0.0316 µM"}, "[14]": {"settings": "second compound 0.316 µM, first compound 0.1 µM"}, "[15]": {"settings": "second compound 0.316 µM, first compound 0.316 µM"}, "[16]": {"settings": "second compound 0.316 µM, first compound 1 µM"}, "[17]": {"settings": "second compound 0.316 µM, first compound 3.16 µM"}, "[18]": {"settings": "second compound 0.316 µM, first compound 10 µM"}, "[19]": {"settings": "second compound 1 µM, first compound 0.0316 µM"}, "[20]": {"settings": "second compound 1 µM, first compound 0.1 µM"}, "[21]": {"settings": "second compound 1 µM, first compound 0.316 µM"}, "[22]": {"settings": "second compound 1 µM, first compound 1 µM"}, "[23]": {"settings": "second compound 1 µM, first compound 3.16 µM"}, "[24]": {"settings": "second compound 1 µM, first compound 10 µM"}, "[25]": {"settings": "second compound 3.16 µM, first compound 0.0316 µM"}, "[26]": {"settings": "second compound 3.16 µM, first compound 0.1 µM"}, "[27]": {"settings": "second compound 3.16 µM, first compound 0.316 µM"}, "[28]": {"settings": "second compound 3.16 µM, first compound 1 µM"}, "[29]": {"settings": "second compound 3.16 µM, first compound 3.16 µM"}, "[30]": {"settings": "second compound 3.16 µM, first compound 10 µM"}, "[31]": {"settings": "second compound 10 µM, first compound 0.0316 µM"}, "[32]": {"settings": "second compound 10 µM, first compound 0.1 µM"}, "[33]": {"settings": "second compound 10 µM, first compound 0.316 µM"}, "[34]": {"settings": "second compound 10 µM, first compound 1 µM"}, "[35]": {"settings": "second compound 10 µM, first compound 3.16 µM"}, "[36]": {"settings": "second compound 10 µM, first compound 10 µM"}},
  "data": [
    {"smiles": "COc1cc(Nc2ncc3c(n2)-c2ccc(Cl)cc2C(c2c(F)cccc2OC)=NC3)ccc1C(=O)O", "note": "+ CC1OCC2(CCN(c3cnc(Sc4ccnc(N)c4Cl)c(N)n3)CC2)C1N", "values": [
      {"measurement": "IC50", "setting": "second compound 0.0316 µM", "result": "> 10", "unit": "µM"},
      {"measurement": "IC50", "setting": "second compound 0.1 µM", "result": "> 10", "unit": "µM"},
      {"measurement": "IC50", "setting": "second compound 0.316 µM", "result": "> 10", "unit": "µM"},
      {"measurement": "IC50", "setting": "second compound 1 µM", "result": 9.81, "unit": "µM"},
      {"measurement": "IC50", "setting": "second compound 3.16 µM", "result": 9.34, "unit": "µM"},
      {"measurement": "IC50", "setting": "second compound 10 µM", "result": 5.94, "unit": "µM"},
      {"measurement": "viability, T/C", "setting": "[1]", "result": 101, "unit": "%"},
      {"measurement": "viability, T/C", "setting": "[2]", "result": 128, "unit": "%"},
      {"measurement": "viability, T/C", "setting": "[3]", "result": 105, "unit": "%"},
      {"measurement": "viability, T/C", "setting": "[4]", "result": 87.7, "unit": "%"},
      {"measurement": "viability, T/C", "setting": "[5]", "result": 85.2, "unit": "%"},
      {"measurement": "viability, T/C", "setting": "[6]", "result": 60.1, "unit": "%"},
      {"measurement": "viability, T/C", "setting": "[7]", "result": 118, "unit": "%"},
      {"measurement": "viability, T/C", "setting": "[8]", "result": 105, "unit": "%"},
      {"measurement": "viability, T/C", "setting": "[9]", "result": 97.5, "unit": "%"},
      {"measurement": "viability, T/C", "setting": "[10]", "result": 87.5, "unit": "%"},
      {"measurement": "viability, T/C", "setting": "[11]", "result": 103, "unit": "%"},
      {"measurement": "viability, T/C", "setting": "[12]", "result": 56.9, "unit": "%"},
      {"measurement": "viability, T/C", "setting": "[13]", "result": 110, "unit": "%"},
      {"measurement": "viability, T/C", "setting": "[14]", "result": 116, "unit": "%"},
      {"measurement": "viability, T/C", "setting": "[15]", "result": 106, "unit": "%"},
      {"measurement": "viability, T/C", "setting": "[16]", "result": 101, "unit": "%"},
      {"measurement": "viability, T/C", "setting": "[17]", "result": 94.7, "unit": "%"},
      {"measurement": "viability, T/C", "setting": "[18]", "result": 49.5, "unit": "%"},
      {"measurement": "viability, T/C", "setting": "[19]", "result": 106, "unit": "%"},
      {"measurement": "viability, T/C", "setting": "[20]", "result": 101, "unit": "%"},
      {"measurement": "viability, T/C", "setting": "[21]", "result": 92.9, "unit": "%"},
      {"measurement": "viability, T/C", "setting": "[22]", "result": 81.7, "unit": "%"},
      {"measurement": "viability, T/C", "setting": "[23]", "result": 77.2, "unit": "%"},
      {"measurement": "viability, T/C", "setting": "[24]", "result": 47.4, "unit": "%"},
      {"measurement": "viability, T/C", "setting": "[25]", "result": 79.5, "unit": "%"},
      {"measurement": "viability, T/C", "setting": "[26]", "result": 91, "unit": "%"},
      {"measurement": "viability, T/C", "setting": "[27]", "result": 72.4, "unit": "%"},
      {"measurement": "viability, T/C", "setting": "[28]", "result": 88.8, "unit": "%"},
      {"measurement": "viability, T/C", "setting": "[29]", "result": 79.2, "unit": "%"},
      {"measurement": "viability, T/C", "setting": "[30]", "result": 48.2, "unit": "%"},
      {"measurement": "viability, T/C", "setting": "[31]", "result": 66.4, "unit": "%"},
      {"measurement": "viability, T/C", "setting": "[32]", "result": 76, "unit": "%"},
      {"measurement": "viability, T/C", "setting": "[33]", "result": 76, "unit": "%"},
      {"measurement": "viability, T/C", "setting": "[34]", "result": 72.6, "unit": "%"},
      {"measurement": "viability, T/C", "setting": "[35]", "result": 70.8, "unit": "%"},
      {"measurement": "viability, T/C", "setting": "[36]", "result": 32.8, "unit": "%"}
    ]},
    {"smiles": "COc1cc2nccc(Oc3ccc(NC(=O)C4(C(=O)Nc5ccc(F)cc5)CC4)cc3)c2cc1OC", "note": "+ CC1OCC2(CCN(c3cnc(Sc4ccnc(N)c4Cl)c(N)n3)CC2)C1N", "values": [
      {"measurement": "IC50", "setting": "second compound 0.0316 µM", "result": 5.72, "unit": "µM"},
      {"measurement": "IC50", "setting": "second compound 0.1 µM", "result": 4.56, "unit": "µM"},
      {"measurement": "IC50", "setting": "second compound 0.316 µM", "result": 5.32, "unit": "µM"},
      {"measurement": "IC50", "setting": "second compound 1 µM", "result": 4.1, "unit": "µM"},
      {"measurement": "IC50", "setting": "second compound 3.16 µM", "result": 3.61, "unit": "µM"},
      {"measurement": "IC50", "setting": "second compound 10 µM", "result": 3.12, "unit": "µM"},
      {"measurement": "viability, T/C", "setting": "[1]", "result": 111, "unit": "%"},
      {"measurement": "viability, T/C", "setting": "[2]", "result": 87.5, "unit": "%"},
      {"measurement": "viability, T/C", "setting": "[3]", "result": 79.3, "unit": "%"},
      {"measurement": "viability, T/C", "setting": "[4]", "result": 103, "unit": "%"},
      {"measurement": "viability, T/C", "setting": "[5]", "result": 73.7, "unit": "%"},
      {"measurement": "viability, T/C", "setting": "[6]", "result": 27.6, "unit": "%"},
      {"measurement": "viability, T/C", "setting": "[7]", "result": 96.5, "unit": "%"},
      {"measurement": "viability, T/C", "setting": "[8]", "result": 93, "unit": "%"},
      {"measurement": "viability, T/C", "setting": "[9]", "result": 100, "unit": "%"},
      {"measurement": "viability, T/C", "setting": "[10]", "result": 80.8, "unit": "%"},
      {"measurement": "viability, T/C", "setting": "[11]", "result": 66.5, "unit": "%"},
      {"measurement": "viability, T/C", "setting": "[12]", "result": 17.4, "unit": "%"},
      {"measurement": "viability, T/C", "setting": "[13]", "result": 88.6, "unit": "%"},
      {"measurement": "viability, T/C", "setting": "[14]", "result": 89.9, "unit": "%"},
      {"measurement": "viability, T/C", "setting": "[15]", "result": 67.9, "unit": "%"},
      {"measurement": "viability, T/C", "setting": "[16]", "result": 83, "unit": "%"},
      {"measurement": "viability, T/C", "setting": "[17]", "result": 75, "unit": "%"},
      {"measurement": "viability, T/C", "setting": "[18]", "result": 19.6, "unit": "%"},
      {"measurement": "viability, T/C", "setting": "[19]", "result": 72.6, "unit": "%"},
      {"measurement": "viability, T/C", "setting": "[20]", "result": 75.6, "unit": "%"},
      {"measurement": "viability, T/C", "setting": "[21]", "result": 82.4, "unit": "%"},
      {"measurement": "viability, T/C", "setting": "[22]", "result": 80, "unit": "%"},
      {"measurement": "viability, T/C", "setting": "[23]", "result": 62.3, "unit": "%"},
      {"measurement": "viability, T/C", "setting": "[24]", "result": 8.31, "unit": "%"},
      {"measurement": "viability, T/C", "setting": "[25]", "result": 72.5, "unit": "%"},
      {"measurement": "viability, T/C", "setting": "[26]", "result": 79, "unit": "%"},
      {"measurement": "viability, T/C", "setting": "[27]", "result": 77.5, "unit": "%"},
      {"measurement": "viability, T/C", "setting": "[28]", "result": 62.6, "unit": "%"},
      {"measurement": "viability, T/C", "setting": "[29]", "result": 58.6, "unit": "%"},
      {"measurement": "viability, T/C", "setting": "[30]", "result": 5.57, "unit": "%"},
      {"measurement": "viability, T/C", "setting": "[31]", "result": 67.8, "unit": "%"},
      {"measurement": "viability, T/C", "setting": "[32]", "result": 72, "unit": "%"},
      {"measurement": "viability, T/C", "setting": "[33]", "result": 73.2, "unit": "%"},
      {"measurement": "viability, T/C", "setting": "[34]", "result": 61.9, "unit": "%"},
      {"measurement": "viability, T/C", "setting": "[35]", "result": 50.7, "unit": "%"},
      {"measurement": "viability, T/C", "setting": "[36]", "result": 3.16, "unit": "%"}
    ]}
  ]
}
